Values of other authors, collected in patent US20050255458A1, “Drug discovery assays based on the biology of chronic disease” (priority 2002, published 2005).
Like-named read-outs stand apart in the source and are kept apart here.

How the values were obtained:
ERK1 and ERK2 = conditions: 20 μm, 15 min; cited from earlier work
DC = conditions: inhaled; cited from earlier work
[1] = test system: ‘Langerhans’ cells in nasal mucosa; conditions: topical; cited from earlier work
NF-κB = conditions: cited from earlier work
[2] = test system: third intron enhancer of the TNFα gene; conditions: PBMC stimulated with TPA; cited from earlier work
ERK [3] = conditions: cited from earlier work
anagen hair follicles = conditions: cited from earlier work
ERK1/2 = conditions: cited studies, various cells; cited from earlier work
AR gene [4] = conditions: cited from earlier work
[5] = test system: ML-1 human myeloblastic leukemic cells; conditions: cited from earlier work; for increase in ERK activity: 0.3 ng/ml
ERK [6] = conditions: LNCaP; cited from earlier work
[7] = 0.3-0.5 mmol/kg/day, from day 56; cited from earlier work
Rous sarcoma virus (RSV) = conditions: cited from earlier work
[8] = test system: Moloney murine leukemia virus (MMuLV); conditions: cited from earlier work
AR gene [9] = conditions: 50 μg/ml, 4 hours, 21-day-old rats; cited from earlier work
TF = conditions: cited from earlier work
ACE [10] = target: T1, ACE (Mus musculus, UniProt P09470); conditions: zofenopril 0.05 or 1, captopril 5, enalapril 0.5 mg/kg/day; 29 weeks; cited from earlier work
T1 sequence (P09470 35-1312): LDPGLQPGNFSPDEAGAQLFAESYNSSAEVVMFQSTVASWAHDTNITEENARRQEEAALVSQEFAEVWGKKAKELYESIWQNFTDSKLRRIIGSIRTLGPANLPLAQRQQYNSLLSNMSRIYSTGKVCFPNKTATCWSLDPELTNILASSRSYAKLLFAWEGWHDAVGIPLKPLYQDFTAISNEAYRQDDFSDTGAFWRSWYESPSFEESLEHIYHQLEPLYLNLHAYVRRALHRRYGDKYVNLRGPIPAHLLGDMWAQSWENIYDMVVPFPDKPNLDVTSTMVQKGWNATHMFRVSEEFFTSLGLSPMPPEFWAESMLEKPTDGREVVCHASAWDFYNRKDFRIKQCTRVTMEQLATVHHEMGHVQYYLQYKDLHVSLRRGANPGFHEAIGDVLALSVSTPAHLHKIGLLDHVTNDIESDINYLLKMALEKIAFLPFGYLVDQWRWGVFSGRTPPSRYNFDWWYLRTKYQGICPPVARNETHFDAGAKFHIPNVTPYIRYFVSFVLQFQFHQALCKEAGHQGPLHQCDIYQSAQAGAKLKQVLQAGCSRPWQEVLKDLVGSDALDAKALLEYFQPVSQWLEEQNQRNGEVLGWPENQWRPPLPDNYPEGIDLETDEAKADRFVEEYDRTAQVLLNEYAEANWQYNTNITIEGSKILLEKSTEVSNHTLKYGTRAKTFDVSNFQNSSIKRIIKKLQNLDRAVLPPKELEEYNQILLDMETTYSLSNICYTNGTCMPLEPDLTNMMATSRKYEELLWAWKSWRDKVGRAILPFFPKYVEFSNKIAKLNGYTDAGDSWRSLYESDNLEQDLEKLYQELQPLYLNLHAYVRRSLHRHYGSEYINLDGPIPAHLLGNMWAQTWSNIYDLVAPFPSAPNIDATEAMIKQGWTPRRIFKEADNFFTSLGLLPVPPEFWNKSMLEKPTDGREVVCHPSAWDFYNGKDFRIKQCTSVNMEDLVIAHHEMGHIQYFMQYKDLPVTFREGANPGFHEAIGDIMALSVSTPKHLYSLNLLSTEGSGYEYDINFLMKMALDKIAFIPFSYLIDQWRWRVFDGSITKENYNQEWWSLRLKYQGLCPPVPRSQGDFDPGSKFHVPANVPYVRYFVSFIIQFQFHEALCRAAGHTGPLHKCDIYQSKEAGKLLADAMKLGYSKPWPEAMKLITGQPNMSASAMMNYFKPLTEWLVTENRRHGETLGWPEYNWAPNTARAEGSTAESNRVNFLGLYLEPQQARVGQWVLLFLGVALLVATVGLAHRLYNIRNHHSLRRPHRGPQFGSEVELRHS

TF antigen = conditions: cited from earlier work
ACE [11] = target: ACE (Homo sapiens, UniProt P12821); set-up: randomly assigned 9,297 high-risk patients; from tissue; host or cells: patients, in vivo; conditions: 5 mg/day, vs placebo; cited from earlier work
metallothionein (MT) [12] = conditions: non-transformed hepatocytes; cited from earlier work
metallothionein (MT) [13] = conditions: cited from earlier work
[14] = test system: LS 174T colon cancer cells; conditions: after the fourth day of treatment; cited from earlier work
metallothionein (MT) [15] = conditions: cited from earlier work; remark: listed apart in the source
PFK-2/FBPase-2 = conditions: diabetic animals, up to 15 days; cited from earlier work
[16] = obese Zucker rats; cited from earlier work
[17] = test system: obese (fa/fa) Zucker rats; conditions: chronic ICV microinjection; cited from earlier work
[18] = test system: genetically obese ob/ob or db/db mice; conditions: low dose injection, for several hours; cited from earlier work
[19] = target: T2, long form leptin receptor (Rattus norvegicus, UniProt Q62959); conditions: CHO cells; cited from earlier work
T2 construct: expressed in transfected cells; host or cells: Chinese hamster ovary (CHO) cells
T2 sequence (Q62959 22-1162): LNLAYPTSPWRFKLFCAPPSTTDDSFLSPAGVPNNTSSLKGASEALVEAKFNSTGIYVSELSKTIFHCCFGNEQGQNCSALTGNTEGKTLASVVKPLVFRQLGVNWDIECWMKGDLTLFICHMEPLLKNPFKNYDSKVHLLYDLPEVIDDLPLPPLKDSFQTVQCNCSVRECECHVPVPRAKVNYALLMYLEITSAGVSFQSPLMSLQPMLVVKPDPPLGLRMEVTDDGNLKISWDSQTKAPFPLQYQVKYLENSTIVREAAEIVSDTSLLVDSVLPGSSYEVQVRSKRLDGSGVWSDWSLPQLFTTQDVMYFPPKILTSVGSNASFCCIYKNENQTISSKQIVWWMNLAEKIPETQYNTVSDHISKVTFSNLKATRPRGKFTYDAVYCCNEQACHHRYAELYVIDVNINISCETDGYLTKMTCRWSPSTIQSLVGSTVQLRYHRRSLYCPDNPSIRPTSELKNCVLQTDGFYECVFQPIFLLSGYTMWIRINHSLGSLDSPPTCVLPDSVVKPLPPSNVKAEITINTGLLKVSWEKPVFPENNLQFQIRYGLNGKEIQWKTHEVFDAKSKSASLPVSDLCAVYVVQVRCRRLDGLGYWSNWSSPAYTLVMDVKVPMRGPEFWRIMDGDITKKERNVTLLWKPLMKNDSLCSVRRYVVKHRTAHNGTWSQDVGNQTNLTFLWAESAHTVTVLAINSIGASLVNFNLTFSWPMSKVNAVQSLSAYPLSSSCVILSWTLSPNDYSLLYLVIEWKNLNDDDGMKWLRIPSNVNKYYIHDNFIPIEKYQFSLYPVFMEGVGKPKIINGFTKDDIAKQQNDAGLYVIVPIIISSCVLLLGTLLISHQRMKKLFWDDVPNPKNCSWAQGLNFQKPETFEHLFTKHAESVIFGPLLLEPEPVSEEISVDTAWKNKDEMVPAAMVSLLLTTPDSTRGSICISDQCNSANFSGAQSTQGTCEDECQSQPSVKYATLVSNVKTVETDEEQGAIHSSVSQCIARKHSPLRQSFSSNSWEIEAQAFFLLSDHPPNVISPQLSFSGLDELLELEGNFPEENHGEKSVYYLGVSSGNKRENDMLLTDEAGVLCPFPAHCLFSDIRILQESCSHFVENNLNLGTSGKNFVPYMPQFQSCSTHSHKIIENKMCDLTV

PTP1B = PTP1B (Homo sapiens, UniProt P18031); conditions: Huyer 1997; cited from earlier work
Chain of PTP1B (P18031 whole entry, species assumed): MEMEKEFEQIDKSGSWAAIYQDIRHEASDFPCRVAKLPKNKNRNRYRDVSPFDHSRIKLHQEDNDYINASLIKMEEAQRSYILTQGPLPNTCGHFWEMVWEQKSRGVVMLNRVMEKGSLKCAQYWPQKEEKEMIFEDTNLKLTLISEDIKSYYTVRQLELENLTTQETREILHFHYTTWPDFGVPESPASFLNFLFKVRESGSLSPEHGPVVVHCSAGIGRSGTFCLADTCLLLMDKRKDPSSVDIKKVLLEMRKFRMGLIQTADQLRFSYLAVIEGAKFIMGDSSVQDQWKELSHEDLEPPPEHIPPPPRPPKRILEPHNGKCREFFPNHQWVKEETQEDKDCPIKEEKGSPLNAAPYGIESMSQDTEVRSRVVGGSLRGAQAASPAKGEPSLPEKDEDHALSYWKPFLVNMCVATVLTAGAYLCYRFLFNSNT

Chain of ACE (Homo sapiens, UniProt P12821) (P12821 30-1306): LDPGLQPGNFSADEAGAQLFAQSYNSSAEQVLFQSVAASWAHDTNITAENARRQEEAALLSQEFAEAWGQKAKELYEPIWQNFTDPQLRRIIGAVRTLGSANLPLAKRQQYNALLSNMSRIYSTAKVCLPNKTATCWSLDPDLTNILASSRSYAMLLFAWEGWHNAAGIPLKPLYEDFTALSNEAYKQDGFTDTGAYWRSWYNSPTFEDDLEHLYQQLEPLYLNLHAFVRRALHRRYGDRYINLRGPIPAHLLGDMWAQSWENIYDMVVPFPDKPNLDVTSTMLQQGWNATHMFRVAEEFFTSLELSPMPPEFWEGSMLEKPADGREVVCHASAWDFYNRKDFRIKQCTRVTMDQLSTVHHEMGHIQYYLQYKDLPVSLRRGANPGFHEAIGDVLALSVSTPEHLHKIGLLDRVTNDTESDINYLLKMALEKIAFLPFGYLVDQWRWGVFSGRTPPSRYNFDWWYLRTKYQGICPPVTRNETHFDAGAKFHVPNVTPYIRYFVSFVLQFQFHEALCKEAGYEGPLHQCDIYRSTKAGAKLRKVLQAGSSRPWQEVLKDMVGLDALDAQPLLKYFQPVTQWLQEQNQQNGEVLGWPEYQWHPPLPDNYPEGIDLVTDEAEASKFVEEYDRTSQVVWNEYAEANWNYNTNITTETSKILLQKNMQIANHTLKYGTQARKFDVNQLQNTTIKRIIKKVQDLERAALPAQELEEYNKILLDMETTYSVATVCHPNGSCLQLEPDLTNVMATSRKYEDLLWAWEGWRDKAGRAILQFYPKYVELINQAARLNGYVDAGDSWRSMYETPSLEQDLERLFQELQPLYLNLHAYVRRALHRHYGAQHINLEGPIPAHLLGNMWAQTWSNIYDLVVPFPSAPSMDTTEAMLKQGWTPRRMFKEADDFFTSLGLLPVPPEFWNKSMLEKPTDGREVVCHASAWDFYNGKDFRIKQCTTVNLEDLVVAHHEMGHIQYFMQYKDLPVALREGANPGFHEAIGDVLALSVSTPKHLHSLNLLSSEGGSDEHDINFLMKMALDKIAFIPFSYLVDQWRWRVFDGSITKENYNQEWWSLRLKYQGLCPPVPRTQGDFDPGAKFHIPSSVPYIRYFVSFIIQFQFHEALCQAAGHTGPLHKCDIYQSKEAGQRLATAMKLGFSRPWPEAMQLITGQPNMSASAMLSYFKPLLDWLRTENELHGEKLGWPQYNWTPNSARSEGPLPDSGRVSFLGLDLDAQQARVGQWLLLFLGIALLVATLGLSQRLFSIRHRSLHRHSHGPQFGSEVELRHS

CCCCCC1OC1CC=CCC=CCC=CCCCC(=O)O (stereo not shown) [14,15-EET, 14,15-epoxyeicosatrienoic acid]
ERK1 and ERK2 phosphorylation (ERK1 and ERK2): stimulated ERK1 and ERK2 phosphorylation

CCC(=O)O[C@]1(C(=O)SCF)[C@H](C)C[C@H]2[C@@H]3C[C@H](F)C4=CC(=O)C=C[C@]4(C)[C@@]3(F)[C@@H](O)C[C@@]21C [FP, Fluticasone propionate]
number of DC in asthma (DC): decreased the number of DC in asthma | number of antigen-presenting ‘Langerhans’ cells in nasal mucosa [1]: decreased the number of the antigen-presenting ‘Langerhans’ cells | NF-κB activation (NF-κB): decreases NF-κB activation

CCCCCCCCCCCCCC(=O)O[C@@H]1[C@@H](C)[C@@]2(O)[C@@H](C=C(CO)C[C@]3(O)C(=O)C(C)=C[C@@H]23)[C@@H]2C(C)(C)[C@]12OC(C)=O [TPA, phorbol 12-myristate 13-acetate]
DNase-I hypersensitivity of the third intron enhancer of the TNFα gene [2]: enhanced | ERK phosphorylation (ERK [3]; Jurkat cells): increased ERK phosphorylation | hair growth (anagen hair follicles; 6 days culture, A 23187 2 μM, TPA 1 μM, IL-1 100 ng per ml (Hoffmann 1997)): significantly inhibited hair growth | IC50 (anagen hair follicles; suspension culture (Harmon 1995), read-out: inhibition of total cumulative hair follicle growth): 1 nM | phosphorylation of ERK1/2 (ERK1/2): phosphorylation of ERK1/2 | mouse AR mRNA (AR gene [4]; Kumar 1998): increase in mouse AR mRNA | Effect on [mRNAAR] (AR gene [4]; Sertoli, 19 days old rats): ↓[mRNAAR] | increase in ERK activity ([5]; 1 h): 6 fold | increase in ERK activity ([5]; 3 h): 4 fold | ML-1 proliferation ([5]; 3-day 0.3 ng/ml, then 3 days without TPA): cease proliferation | Effect on [ERK^phos] (ERK [6]): ↑[ERK^phos]

Cc1occc(=O)c1[O-].Cc1occc(=O)c1[O-].[O]=[V+2] [bis(maltolato)oxovanadium]
weight gain [7]: decreased weight gain

C/C=C/C/C=C/CCC(=O)[C@H]1O[C@H]1C(N)=O [cerulenin]
virus production (Rous sarcoma virus (RSV)): inhibited | virus production [8]: drastically decreased

C[C@@H]1C[C@@H]([C@H](O)CC2CC(=O)NC(=O)C2)C(=O)[C@@H](C)C1 [cycloheximide]
ERK phosphorylation (ERK [3]; oocytes): decreased ERK phosphorylation | increase in AR mRNA (AR gene [9]): 1.7±0.4 fold | AGE-alb induced TF mRNA (TF): completely suppressed

CCOC(=O)[C@H](CCc1ccccc1)N[C@@H](C)C(=O)N1CCC[C@H]1C(=O)O [enalapril]
total lesion area compared to placebo (ACE [10]): no significant decrease in lesion area | plasma TF antigen level (TF antigen; day 3): 205±14 | plasma TF antigen level (TF antigen; day 28): 169±13 | changes in mean absolute diameter, minimum absolute diameter, and percent diameter stenosis (ACE [11]): no significant difference

CCCC(=O)[O-].[Na+] [sodium butyrate]
increase in MT mRNA (metallothionein (MT) [12]): 2-4 fold | phosphorylation of ERK1/2 (ERK1/2): phosphorylation of ERK1/2 | MT mRNA levels (metallothionein (MT) [13]; OC15 EC, OC15 END cells): increased MT mRNA levels | increase in MT mRNA (metallothionein (MT) [13]; OC15 carcinoma cells): 20 fold | growth of LS 174T cells [14]: significant growth inhibition | MT synthesis (metallothionein (MT) [15]): dose-dependent increase

[O]=[V]([O-])([O-])[O-] [vanadate, Vanadate (VO4^−3)]
liver PFK-2/FBPase-2 mRNA content (PFK-2/FBPase-2): progressive increase | ERK activation (ERK [3]; as general PTP inhibitors): activate ERK | decrease in plasma glucose [16]: 36% | decrease in plasma insulin [16]: 80%

IL-1β: human recombinant IL-1β, an ERK agent
decrease in nighttime food intake [17]: 66.1% | growth of isolated scalp hair (anagen hair follicles; Xiong 1997): growth inhibition | glucose blood levels [18]: normalization of glucose blood levels

leptin: an ERK agent that binds the long form leptin receptor
tyrosine phosphorylation of STAT3 and ERK [19]: increased tyrosine phosphorylation of STAT3 and ERK

pervanadate
PTP1B activity (PTP1B): inhibition
